Laboratory results from US12358901B2, “KV3 modulators” (priority 2018, dated 2025).

How the values were obtained:
[1] = Determination of brain tissue binding (equilibrium dialysis); type: in vitro ADME; conditions: Sprague Dawley, rat whole brain homogenate, 5 h at 37° C.
Experimental: Sprague Dawley rat whole blood, collected on the week of the experiment using K3-EDTA as an anti-coagulant, is diluted with isotonic phosphate buffer 1:1 (v/v). Sprague Dawley rat whole brain, stored frozen at −20° C., is thawed and homogenised in artificial cerebrospinal fluid (CSF) 1:2 (w/v).
An appropriate amount of test compound is dissolved in DMSO to give a 10 millimolar solution. Further dilutions, to obtain a 166.7 micromolar working solution are then prepared using 50% acetonitrile in MilliQ water. This working solution is used to spike the blood to obtain a final concentration of 0.5 micromolar in whole blood. Similarly, the working solution is used to spike brain samples to obtain a final concentration of 5 micromolar in whole brain. From these spiked blood and brain preparations, control samples (n=3), are immediately extracted and used to calculate the initial recovery of the test items.
150 microL of compound-free buffer (isotonic phosphate buffer for blood or artificial CSF buffer for brain) is dispensed in one half-well and 150 microL of spiked matrix (blood or brain) is loaded in the other half-well, with the two halves separated by a semi-permeable membrane. After an equilibration period of 5 h at 37° C., 50 microL of dialysed matrix (blood or brain) is added to 50 microL of corresponding compound-free buffer, and vice-versa for buffer, such that the volume of buffer to matrix (blood or brain) remains the same. Samples are then extracted by protein precipitation with 300 microL of acetonitrile containing rolipram (control for positive ionization mode) or diclofenac (control for negative ionization mode) as internal standards and centrifuged for 10 min at 3000 rpm. Supernatants are collected (100 microL), diluted with 27% AcN in MilliQ water (200 microL) and then injected into an HPLC-MS/MS or UPLC-MS/MS system to determine the concentration of test compound present.
Blood and brain tissue binding are then determined using the following formulas: Afu=Buffer/Blood or Afu=CSF/Brain
Where Afu=apparent fraction unbound; Buffer=analyte/internal standard ratio determined in the buffer compartment; Blood=analyte/internal standard ratio determined in the blood compartment; Brain=analyte/internal standard ratio determined in the brain compartment.
[formula] where: fucr=Fraction unbound corrected; D=matrix dilution factor (D=2 for blood and D=3 for brain).
Then: % Binding=(1−fucr)×100 % Unbound=100−% Bound Brain/Blood Partition Ratio (Kbb) Determination

[2] = tested on: Salmonella typhimurium (TA1535, TA1537, TA98 and TA100) and Escherichia coli WP2 uvrA (pKM101); experiment: Ames testing (bacterial mutagenicity, with and without S9-mix); conditions: absence and presence of S9-mix; for Ames Result (compound): 5 to 5000 ug/plate; for Ames Result (associated aniline): aniline associated with the compound
[3] = target: human Kv3.1 channels (hKv3.1) (Homo sapiens, UniProt P48547); experiment: cell-based; type: cell-based; conditions: for Kv3.1 pEC50: HEK-hKv3.1 cells, -15 mV voltage step, normalised to 50 microM reference compound; for Kv3.1 max R %: maximum response relative to reference compound (50 microM)
From the text: The ability of the compounds of the invention to modulate the voltage-gated potassium channel subtypes Kv3.3/Kv3.2/Kv3.1 may be determined using the following assay. Analogous methods may be used to investigate the ability of the compounds of the invention to modulate other channel subtypes.
To assess compound effects on human Kv3.1 channels (hKv3.1):
Human embryonic kidney (HEK)-hKv3.1 cell line is generated by transfecting HEK-293 cells with an expression vector with human Kv3.1 (NM_004976.4). Cells are cultured with MEM supplemented with 10% Heat-Inactivated FBS, 2 mM L-glutamine, 1% Penicillin-Streptomycin, and 0.6 mg/ml of Geneticin (G418). HEK-hKv3.1b cells were amplified in T175 cm2 flask at 37° C. with 5% CO2, using MEM amplification medium, containing the G418 selection antibiotic (0.6 mg/ml). Cells were detached every 3-4 days, using DPBS to wash twice the flask, then TrypLE to dislodge the cells, and re-plated at a density of 2-4×10^6 cells/flask.
The day of the experiment, cells are removed from the incubator and the culture medium removed. Cells are washed with 5 ml of Dulbecco's PBS (DPBS) calcium and magnesium free and detached by the addition of 3 ml Versene (Invitrogen, Italy) followed by a brief incubation at 37° C. for 5 minutes. The flask is tapped to dislodge cells and 10 ml of DPBS containing calcium and magnesium is added to prepare a cell suspension. The cell suspension is then placed into a 15 ml centrifuge tube and centrifuged for 2 min at 1200 rpm. After centrifugation, the supernatant is removed and the cell pellet re-suspended in 4 ml of DPBS containing calcium and magnesium using a 5 ml pipette to break up the pellet. Cell suspension volume is then corrected to give a cell concentration for the assay of approximately 3 million cells per ml.
Experiments are conducted at r.t. using IonWorks Quattro™ planar array electrophysiology technology (Molecular Devices Corp.) with PatchPlate™ PPC. Stimulation protocols and data acquisition are carried out using a microcomputer (Dell Pentium 4). Planar electrode hole resistances (Rp) are determined by applying a 10 mV voltage step across each well. These measurements are performed before cell addition. After cell addition and seal formation, a seal test is performed by applying a voltage step from −80 mV to −70 mV for 160 ms. Following this, amphotericin-B solution is added to the intracellular face of the electrode to achieve intracellular access. Cells are held at −70 mV. Leak subtraction is conducted in all experiments by applying 50 ms hyperpolarizing (10 mV) prepulses to evoke leak currents followed by a 20 ms period at the holding potential before test pulses.
For hKv3.2 and hKv3.1, assays from the holding potential of −70 mV, a first test pulse at −15 mV was applied for 100 ms and after 100 ms at −70 mV a second pulse at +40 mV was applied for 50 ms. Cells were then maintained for 100 ms at −100 mV and another pulse from −70 mV to +40 mV (duration 50 ms) was applied to clamp later the voltage at −40 mV during 200 ms
The intracellular solution contains the following (in mM): K-gluconate 100, KCl 54, MgCl2 3.2, HEPES 5, adjusted to pH 7.3 with KOH. Amphotericin-B solution is prepared as 50 mg/ml stock solution in DMSO and diluted to a final working concentration of 0.1 mg/ml in intracellular solution. The external solution is Dulbecco's Phosphate Buffered Saline (DPBS) and contained the following (in mM): CaCl2 0.90, KCl 2.67, KH2PO4 1.47, MgCl·6H2O 0.493, NaCl 136.9, Na3PO4 8.06, with a pH of 7.4.
Compounds of use in the invention (or reference compounds such as N-cyclohexyl-N-[(7,8-dimethyl-2-oxo-1,2-dihydro-3-quinolinyl)methyl]-N-phenylurea) are dissolved in dimethylsulfoxide (DMSO) at a stock concentration of 10 mM. These solutions are further diluted with DMSO using a Biomek FX (Beckman Coulter) in a 384 compound plate. Each dilution (1 μL) is transferred to another compound plate and external solution containing 0.05% pluronic acid (66 μL) is added. […]

SMILES	fraction unbound at 5 h, 5 micromolar [1]	Ames Result (compound) [2]	EC50 [3]	pEC50 and maxR in the Kv3.1 assay (in words) [3]	Kv3.1 pEC50 [3]	Kv3.1 max R % [3]	Ames Result (associated aniline) [2]
Cc1ccc(Oc2cnc(N3C(=O)NC(C)(C)C3=O)cn2)c2c1OCC21CC1 [Example 1, 5,5-dimethyl-3-[5-(7-methylspiro[2H-benzofuran-3,1′-cyclopropane]-4-yl)oxypyrazin-2-yl]imidazolidine-2,4-dione]	0.043	Non- mutagenic	2750 nM	high pEC50 and high maxR	5.47	164%	
Cc1ccc(Oc2ccc(N3C(=O)NC(C)(C)C3=O)cn2)c2c1OCC21CC1 [RE6, reference compound]	0.028	Non- mutagenic			5.58	144%	
Cc1ccc(Oc2ccc(N)cn2)c2c1OCC21CC1 [aniline associated with RE6/RE11]							Mutagenic for TA1535 in the presence of metabolic activation at 150 ug/plate
Nc1cnc(Oc2cccc3c2C2(CC2)CO3)cn1 [aniline for Example 10]							Non-mutagenic
Cc1ccc(Oc2cnc(N)cn2)c2c1OCC21CC1 [aniline for Examples 1 and 9]							Non-mutagenic
